Assay results as given in patent publication US20240199758A1, “METHOD FOR ALLOWING IMMUNE CELLS INFILTRATION IN TUMORS” (Alethia Biotherapeutics Inc., priority 2021, published 2024).

Assays:
[1] = test system: advanced solid malignancy; experiment: Phase I study AB-16B5-101: tumor response (RECIST) and best overall response; type: in vivo, human
human tumor biopsies = experiment: Human tumor biopsies of patients treated with AB-16B5 as single agent (hematoxylin and eosin); type: in vivo; details: on-treatment biopsy after the second cycle
Description: In parallel human tumor biopsies of patients treated with AB-16B5 as single agent were analyzed (FIGS. 2B-2E). Needle biopsies obtained from a patient with metastatic thyroid cancer and form a patient with inoperable metastatic gastric cancer were sectioned and stained with hematoxylin and eosin. An on-treatment biopsy from a patient with thyroid cancer metastasic to the lungs was obtained after the second cycle treatment with AB-16B5. […] Hemosiderin-laden macrophages were observed inside necrotic areas some reflecting red blood cell extravasation associated with necrosis (not shown).

[2] = rhesus monkey, in vivo
[3] = Non-clinical toxicity, weekly administration in monkeys
[4] = Subject 001, Pancreatic, 1.5 mg/kg, 2 total cycles
[5] = Subject 002, Endometrium, 3.0 mg/kg, 4 total cycles
[6] = Subject 003, Soft Tissue Sarcoma, 6.0 mg/kg, 2 total cycles
[7] = Subject 005, Prostate, 6.0 mg/kg, 2 total cycles
[8] = Subject 010, Colorectal, 12.0 mg/kg, 4 total cycles
[9] = Subject 012, Breast, 12.0 mg/kg, 2 total cycles
[10] = Subject 013, Prostate, 12.0 mg/kg, 2 total cycles
[11] = Subject 014, Vulvar Melanoma, 12.0 mg/kg, 2 total cycles
[12] = thyroid cancer metastatic to the lungs, FIG. 2B

For “AB-16B5: humanized IgG2 monoclonal antibody targeting sCLU for the inhibition of cancer-associated EMT; light chain SEQ ID NO:11, heavy chain SEQ ID NO:12”, the “subjects with best overall response progressive disease (PD)” value ([1]; RECIST-evaluable population) was 43%, the “Best Overall Response” value [1, 4] was “PD (progressive disease (PD))” and the “Tumor Response at Last Assessment: Non-Target Lesions” value (shortened to “Tumor Response … Non-Target Lesions”) [1, 4] was “PD (New”. The “Tumor Response at Last Assessment: Target Lesions” value [1, 4] was “PD (progressive disease (PD))”, the “Tumor Response … Non-Target Lesions” value [1, 5] was “Non-CR/” and the “Tumor Response at Last Assessment: Target Lesions” value [1, 5] was “PD (progressive disease (PD))”. The “Best Overall Response” value [1, 6] was “PD (progressive disease (PD))”, the “Tumor Response … Non-Target Lesions” value [1, 6] was “PD (New” and the “Tumor Response … Non-Target Lesions” value ([1]; Subject 004, Thyroid, 6.0 mg/kg, 17 total cycles) was “Non-CR/”. For the same substance, the “Best Overall Response” value [1, 7] was “PD (progressive disease (PD))”, the “Tumor Response … Non-Target Lesions” value [1, 7] was “Non-CR/” and the “Tumor Response at Last Assessment: Target Lesions” value [1, 7] was “PD (progressive disease (PD))”. The “Tumor Response … Non-Target Lesions” value ([1]; Subject 006, Breast, 9.0 mg/kg, 3 total cycles) was “Non-CR/”, the “Tumor Response … Non-Target Lesions” value ([1]; Subject 007, Gastric, 9.0 mg/kg, 8 total cycles) was “PD (New” and the “Tumor Response … Non-Target Lesions” value ([1]; Subject 008, Thyroid, 9.0 mg/kg, 4 total cycles) was “PD (New”. The “Tumor Response … Non-Target Lesions” value ([1]; Subject 009, Lung, 12.0 mg/kg, 6 total cycles) was “PD (New”, the “Tumor Response … Non-Target Lesions” value [1, 8] was “PD (New” and the “Tumor Response at Last Assessment: Target Lesions” value [1, 8] was “PD (progressive disease (PD))”. The “Best Overall Response” value [1, 9] was “PD (progressive disease (PD))”, the “Tumor Response … Non-Target Lesions” value [1, 9] was “PD (progressive disease (PD))” and the “Best Overall Response” value [1, 10] was “PD (progressive disease (PD))”. For the same substance, the “Tumor Response … Non-Target Lesions” value [1, 10] was “PD (New”, the “Best Overall Response” value [1, 11] was “PD (progressive disease (PD))” and the “Tumor Response … Non-Target Lesions” value [1, 11] was “PD (New”. For the same substance, the “Tumor Response … Non-Target Lesions” value ([1]; Subject 015, Ovarian Cancer, 12.0 mg/kg, 4 total cycles) was “PD (New”, the “time on treatment with stable disease (SD) with clinical benefit” value ([1]; patient with advanced gastric cancer) was 24 weeks and the “duration of SD” value ([1]; patient with follicular thyroid cancer) was about 1 year. For the same substance, the “immune infiltrate in tumor fragments” value (human tumor biopsies; metastatic gastric cancer, FIG. 2E) was “infiltrated by a mix neutrophilic and mononucleated immune cells infiltrate”, the “immune infiltrate in tumor fragment” value (human tumor biopsies; [12]) was “A lymphoplasmacytic infiltrate was observed along the edge of the fragment” and the “necrosis of tumor fragments” value (human tumor biopsies; [12]) was “essentially all tumor fragments were necrotic”. The emesis during infusion [2] was “Few episodes of emesis”, the “signs of overt toxicity” value [2] was “did not result in any signs of overt toxicity” and the “treatment-related effects on body weight, ophthalmology, electrocardiography and organ weight” value [2] was “no treatment-related effects”. For the same substance, the “animals with hepatocellular vacuolation in the liver” value ([2]; 100 mg/kg) was 2 animals, the “mean albumin, globulin, A/G and phosphorus levels” value ([3]; monkeys, 20, 60 and/or 100 mg/kg) was “Slight changes” and the NOAEL ([3]; monkeys, weekly administration) was 100 mg/kg/dose.
